Data published in the supplement of paper PMC10307832.

Assays:
Assay in all cases: relative viability (nuclei count vs DMSO), 5 days (fraction); higher = more cells survive
NCI-H647 = tested on: NCI-H647
How it was run: (§1)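 Cells from lung cancer lines were seeded into 1536-well plates and, one day later, dosed by pin tool. Treatments were either a single drug or a fixed dose of an anchor drug with five library-drug doses (not always all listed) in √10 steps. After 5 days, nuclei were stained in a one-step fixation (final 0.05% Triton X-100, 1% formaldehyde, 1 ug/ml Hoechst) and counted on 4× images, and relative viability is the treated-to-vehicle nuclei ratio, as the median of duplicate plates.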

NCI-H460 = tested on: NCI-H460
How it was run: as §1

NCI-H596 = tested on: NCI-H596
How it was run: as §1

PC-14 = tested on: PC-14
How it was run: as §1

NCI-H1437 = tested on: NCI-H1437
How it was run: as §1

ABC-1 = tested on: ABC-1
How it was run: as §1

NCI-H1755 = tested on: NCI-H1755
How it was run: as §1

NCI-H23 = tested on: NCI-H23
How it was run: as §1

HCC-366 = tested on: HCC-366
How it was run: as §1

NCI-H2023 = tested on: NCI-H2023
How it was run: as §1

NCI-H3122 = tested on: NCI-H3122
How it was run: as §1

NCI-H2009 = tested on: NCI-H2009
How it was run: as §1

H3255 = tested on: H3255
How it was run: as §1

UMC-11 = tested on: UMC-11
How it was run: as §1

A-427 = tested on: A-427
How it was run: as §1

PC-3 [JPC-3] = tested on: PC-3 [JPC-3]
How it was run: as §1

NCI-H2347 = tested on: NCI-H2347
How it was run: as §1

HCC-44 = tested on: HCC-44
How it was run: as §1

NCI-H2405 = tested on: NCI-H2405
How it was run: as §1

LXF-289 = tested on: LXF-289
How it was run: as §1

Compound `COCC1(CO)C(=O)C2CCN1CC2` (stereo not drawn) [PRIMA-1MET] + CS(=O)(=O)CCNCc1ccc(-c2ccc3ncnc(Nc4ccc(OCc5cccc(F)c5)c(Cl)c4)c3c2)o1 [Lapatinib] (partner 2 µM) has a relative viability (NCI-H647; first compound 0.2 µM) of 1.29, a relative viability (NCI-H647; first compound 0.6325 µM) of 1.09 and a relative viability (NCI-H647; first compound 2 µM) of 0.759. For the same compound, the relative viability (NCI-H647; first compound 6.325 µM) was 1.29, the relative viability (NCI-H647; first compound 20 µM) was 0.783 and the relative viability (NCI-H460; first compound 0.2 µM) was 0.993. For the same compound, the relative viability (NCI-H460; first compound 0.6325 µM) was 0.826, the relative viability (NCI-H460; first compound 2 µM) was 0.893 and the relative viability (NCI-H460; first compound 6.325 µM) was 0.607. The relative viability (NCI-H460; first compound 20 µM) was 0.0047, the relative viability (NCI-H596; first compound 0.2 µM) was 1.14 and the relative viability (NCI-H596; first compound 0.6325 µM) was 1.01. For the same compound, the relative viability (NCI-H596; first compound 2 µM) was 0.77, the relative viability (NCI-H596; first compound 6.325 µM) was 1.22 and the relative viability (NCI-H596; first compound 20 µM) was 1.02. The relative viability (PC-14; first compound 0.2 µM) was 0.396, the relative viability (PC-14; first compound 0.6325 µM) was 0.326 and the relative viability (PC-14; first compound 2 µM) was 0.251. The relative viability (PC-14; first compound 6.325 µM) was 0.367, the relative viability (PC-14; first compound 20 µM) was 0.358 and the relative viability (NCI-H1437; first compound 0.2 µM) was 0.936. The relative viability (NCI-H1437; first compound 0.6325 µM) was 0.703, the relative viability (NCI-H1437; first compound 2 µM) was 0.765 and the relative viability (NCI-H1437; first compound 6.325 µM) was 0.82. For the same compound, the relative viability (NCI-H1437; first compound 20 µM) was 0.694, the relative viability (ABC-1; first compound 0.2 µM) was 1.05 and the relative viability (ABC-1; first compound 0.6325 µM) was 1.11. It also gave a relative viability (ABC-1; first compound 2 µM) of 0.956, a relative viability (ABC-1; first compound 6.325 µM) of 1.17 and a relative viability (ABC-1; first compound 20 µM) of 1.03. The relative viability (NCI-H1755; first compound 0.2 µM) was 1.04, the relative viability (NCI-H1755; first compound 0.6325 µM) was 0.901 and the relative viability (NCI-H1755; first compound 2 µM) was 0.846. For the same compound, the relative viability (NCI-H1755; first compound 6.325 µM) was 1.03, the relative viability (NCI-H1755; first compound 20 µM) was 0.907 and the relative viability (NCI-H23; first compound 0.2 µM) was 1.29. For the same compound, the relative viability (NCI-H23; first compound 0.6325 µM) was 0.951, the relative viability (NCI-H23; first compound 2 µM) was 0.897 and the relative viability (NCI-H23; first compound 6.325 µM) was 0.961. It also gave a relative viability (NCI-H23; first compound 20 µM) of 0.117, a relative viability (HCC-366; first compound 0.2 µM) of 1.28 and a relative viability (HCC-366; first compound 0.6325 µM) of 0.856. For the same compound, the relative viability (HCC-366; first compound 6.325 µM) was 0.915, the relative viability (HCC-366; first compound 20 µM) was 0.016 and the relative viability (NCI-H2023; first compound 0.2 µM) was 0.991. It also gave a relative viability (NCI-H2023; first compound 0.6325 µM) of 0.26, a relative viability (NCI-H2023; first compound 2 µM) of 0.639 and a relative viability (NCI-H2023; first compound 6.325 µM) of 0.893. The relative viability (NCI-H2023; first compound 20 µM) was 0.841, the relative viability (NCI-H3122; first compound 0.2 µM) was 0.711 and the relative viability (NCI-H3122; first compound 0.6325 µM) was 1.04. The relative viability (NCI-H3122; first compound 2 µM) was 1.03, the relative viability (NCI-H3122; first compound 6.325 µM) was 0.996 and the relative viability (NCI-H3122; first compound 20 µM) was 0.954. The relative viability (NCI-H2009; first compound 0.2 µM) was 0.66, the relative viability (NCI-H2009; first compound 0.6325 µM) was 0.844 and the relative viability (NCI-H2009; first compound 2 µM) was 0.669. The relative viability (NCI-H2009; first compound 6.325 µM) was 0.905, the relative viability (NCI-H2009; first compound 20 µM) was 0.0051 and the relative viability (H3255; first compound 0.2 µM) was 0.231. For the same compound, the relative viability (H3255; first compound 0.6325 µM) was 0.21, the relative viability (H3255; first compound 2 µM) was 0.225 and the relative viability (H3255; first compound 6.325 µM) was 0.237. The relative viability (H3255; first compound 20 µM) was 0.195, the relative viability (UMC-11; first compound 0.2 µM) was 1.12 and the relative viability (UMC-11; first compound 0.6325 µM) was 0.898. The relative viability (UMC-11; first compound 2 µM) was 0.755, the relative viability (UMC-11; first compound 6.325 µM) was 0.961 and the relative viability (UMC-11; first compound 20 µM) was 0.991. For the same compound, the relative viability (A-427; first compound 0.2 µM) was 1.08, the relative viability (A-427; first compound 0.6325 µM) was 0.849 and the relative viability (A-427; first compound 2 µM) was 0.895. It also gave a relative viability (A-427; first compound 6.325 µM) of 1.02, a relative viability (A-427; first compound 20 µM) of 0.982 and a relative viability (PC-3 [JPC-3]; first compound 0.2 µM) of 0.544. It also gave a relative viability (PC-3 [JPC-3]; first compound 0.6325 µM) of 0.392, a relative viability (PC-3 [JPC-3]; first compound 2 µM) of 0.456 and a relative viability (PC-3 [JPC-3]; first compound 6.325 µM) of 0.447. The relative viability (PC-3 [JPC-3]; first compound 20 µM) was 0.478, the relative viability (NCI-H2347; first compound 0.2 µM) was 0.939 and the relative viability (NCI-H2347; first compound 0.6325 µM) was 0.856. For the same compound, the relative viability (NCI-H2347; first compound 2 µM) was 0.57, the relative viability (NCI-H2347; first compound 6.325 µM) was 0.918 and the relative viability (NCI-H2347; first compound 20 µM) was 1.06. The relative viability (HCC-44; first compound 0.2 µM) was 1.02, the relative viability (HCC-44; first compound 0.6325 µM) was 0.775 and the relative viability (HCC-44; first compound 2 µM) was 0.99. For the same compound, the relative viability (HCC-44; first compound 6.325 µM) was 1.01, the relative viability (HCC-44; first compound 20 µM) was 0.994 and the relative viability (NCI-H2405; first compound 0.2 µM) was 0.77. It also gave a relative viability (NCI-H2405; first compound 0.6325 µM) of 1.17, a relative viability (NCI-H2405; first compound 6.325 µM) of 0.85 and a relative viability (NCI-H2405; first compound 20 µM) of 0.0796. For the same compound, the relative viability (LXF-289; first compound 0.2 µM) was 0.878, the relative viability (LXF-289; first compound 0.6325 µM) was 0.879 and the relative viability (LXF-289; first compound 2 µM) was 0.979. The relative viability (LXF-289; first compound 6.325 µM) was 0.923 and the relative viability (LXF-289; first compound 20 µM) was 0.836.
